The record followed here is PMC11696576, “Next generation thiazolyl ketone inhibitors of cytosolic phospholipase A2 α for targeted cancer therapy” (Nature Communications, 2025).

“And” between values parts separate entries of the source, which are not always exact repeats. Equal entries are not always repeated. Where two headings read alike, the source gives them in different places.

In test [1] the target is T1, recombinant human cPLA2α (Homo sapiens, UniProt P47712).
T1 sequence (P47712 1-749): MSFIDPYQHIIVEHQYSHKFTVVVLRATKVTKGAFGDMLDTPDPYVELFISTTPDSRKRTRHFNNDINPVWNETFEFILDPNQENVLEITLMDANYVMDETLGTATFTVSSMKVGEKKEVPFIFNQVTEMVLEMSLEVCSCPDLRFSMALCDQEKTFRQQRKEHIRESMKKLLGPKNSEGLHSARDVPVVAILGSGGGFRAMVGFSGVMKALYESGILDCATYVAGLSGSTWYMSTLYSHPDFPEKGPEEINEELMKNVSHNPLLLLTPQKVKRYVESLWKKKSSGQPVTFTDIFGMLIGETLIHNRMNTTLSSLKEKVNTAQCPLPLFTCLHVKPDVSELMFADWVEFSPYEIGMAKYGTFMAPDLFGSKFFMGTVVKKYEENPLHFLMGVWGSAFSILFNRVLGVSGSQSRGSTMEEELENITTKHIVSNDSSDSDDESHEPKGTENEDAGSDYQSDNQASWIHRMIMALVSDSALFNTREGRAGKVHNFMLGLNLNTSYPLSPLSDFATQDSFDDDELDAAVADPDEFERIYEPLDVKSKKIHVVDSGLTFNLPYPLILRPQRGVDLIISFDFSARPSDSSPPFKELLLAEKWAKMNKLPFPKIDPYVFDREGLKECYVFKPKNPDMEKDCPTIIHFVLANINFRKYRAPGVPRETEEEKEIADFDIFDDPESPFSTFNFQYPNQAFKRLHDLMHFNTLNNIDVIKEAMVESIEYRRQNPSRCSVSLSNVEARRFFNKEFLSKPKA
The test is described as follows: radioactivity-based mixed micelle assay, cPLA2α. The format is biochemical. The note with it: for cPLA2 % inhibition at 0.091 mole fraction, average: average of triplicates; for cPLA2α XI(50): XI(50) ± stdev, mole fraction of inhibitor in total substrate interface for 50% inhibition; for times more potent than GK470: cPLA2α XI(50) relative to GK470; for cPLA2α inhibition, Xi50 dose-response: replicates. How it is done: (§1) All synthesized thiazolyl ketones were tested for their in vitro inhibitory activity on recombinant human cPLA2α and selectivity over human calcium-independent GVIA iPLA2 and secreted GV sPLA2 using our previously described group-specific radioactivity-based mixed micelle assays. The inhibition results are presented either as per cent inhibition or as XI(50) values in Table 1. […] The XI(50) is defined as the mole fraction of the inhibitor in the total substrate interface required to inhibit the enzyme activity by 50%. For comparison purposes, previously published data for the inhibitor GK470[19] are included. […] Inhibitors were initially screened at 0.091 mol fraction (5 μL of 5 mM inhibitor in DMSO) in substrate (495 μL) in technical triplicates. […] The XI(50) value and stdev values reported are for the entire curve. This analysis was performed in GraphPad Prism v6.

For test [2], the target named is T2, secreted GV sPLA2 (Homo sapiens, UniProt P39877).
T2 sequence (P39877 21-138): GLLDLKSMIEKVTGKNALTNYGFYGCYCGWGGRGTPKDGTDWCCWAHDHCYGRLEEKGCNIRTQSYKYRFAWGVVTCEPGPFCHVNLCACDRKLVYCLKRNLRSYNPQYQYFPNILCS
Description: radioactivity-based mixed micelle assay, GV sPLA2. The format is biochemical. How it is done: as §1

Where [3] appears, read: 0.091 mole fraction, read-out: cPLA2α % Inhib.
Where [4] appears, read: individual technical replicate, read-out: cPLA2 % inhibition at 0.091 mole fraction.
Setting [5] is: 0.091 mole fraction, read-out: GV sPLA2 % Inhib.
Where [6] appears, read: average of triplicates, read-out: sPLA2 % inhibition at 0.091 mole fraction, average.
[7] abbreviates: individual technical replicate, read-out: sPLA2 % inhibition at 0.091 mole fraction.

On to `CCCCCCCCc1ccc(OCC(=O)c2nc(C(=O)OCC)cs2)cc1` [GK401], for which the inhibition at 0.091 mole fraction in test [1] (setting [3]) turned out to be 89%; in test [1] (setting [4]), 88.4%; in test [2] (setting [5]), 46%; in test [2] (setting [6]), 46.1%; in test [2] (setting [7]), 45.9%. In test [1], the “cPLA2 % inhibition at 0.091 mole fraction, average” value stood at 88.7%.
On to `COC(=O)c1csc(C(=O)COc2ccc(Oc3ccccc3)cc2)n1` [GK403], for which the inhibition at 0.091 mole fraction is 95% in test [1] (setting [3]), 95.1% in test [1] (setting [4]), 32% in test [2] (setting [5]) and 27.6% in test [2] (setting [7]). Further, the “cPLA2α XI(50)” value in test [1] is 0.0014 mole fraction and 0.0014 ± 0.0001 mole fraction. For the same molecule, the “cPLA2 % inhibition at 0.091 mole fraction, average” value in test [1] is recorded as 95.4%.
Turning to `CCCCCCSc1ccc(OC(C)C(=O)c2nc(C(=O)OC)cs2)cc1` (stereo not drawn) [GK449], the inhibition at 0.091 mole fraction worked out at 98% in test [1] (setting [3]), 96.2% in test [1] (setting [4]), 53% in test [2] (setting [5]) and 51.8% in test [2] (setting [7]). The “cPLA2α XI(50)” value in test [1] is 0.0017 mole fraction and 0.0017 ± 0.0005 mole fraction. In addition, in test [1], the “cPLA2 % inhibition at 0.091 mole fraction, average” value is 97.5%. In test [1], the “times more potent than GK470” value is 7–11.
Consider `CCCCCCOc1ccc(SCC(=O)c2nc(C(=O)OC)cs2)cc1` [GK419], for which the inhibition at 0.091 mole fraction in test [1] (setting [3]) was 50%; in test [1] (setting [4]), 54%; in test [2] (setting [5]), 29%; in test [2] (setting [6]), 29.2%; in test [2] (setting [7]) it was 33.4%.
Consider `CCCCCCCCc1ccc(OC(C)C(=O)c2nc(C(=O)OC)cs2)cc1` (stereo not drawn) [GK402], for which the inhibition at 0.091 mole fraction was 79% in test [1] (setting [3]); 81% in test [1] (setting [4]); 50% in test [2] (setting [5]); 49.5% in test [2] (setting [6]); 50.4% in test [2] (setting [7]). Also, the “cPLA2 % inhibition at 0.091 mole fraction, average” value in test [1] turned out to be 79.2%.
For the molecule `COC(=O)c1csc(C(=O)C(C)Oc2ccc(Oc3ccccc3)cc2)n1` (stereo not drawn) [GK428], the inhibition at 0.091 mole fraction in test [1] (setting [3]) worked out at 94%; in test [1] (setting [4]), 94.2%; in test [2] (setting [5]), 36%; in test [2] (setting [6]), 36.4%; in test [2] (setting [7]), 28.3%. For the same molecule, the “cPLA2α XI(50)” value in test [1] was 0.0038 mole fraction and 0.0038 ± 0.0001 mole fraction.
As to `CCCCCCSc1ccc(OCC(=O)c2nc(C(=O)OC)cs2)cc1` [GK427], the inhibition at 0.091 mole fraction in test [1] (setting [3]) turned out to be 98%; in test [1] (setting [4]), 98.4%; in test [2] (setting [5]) it was 44%; in test [2] (setting [6]) it was 43.6%; in test [2] (setting [7]) it was 39.7%. For the same molecule, the “cPLA2α inhibition, Xi50 dose-response” value in test [1] (Log [inhibitor] (mole%) -4.30) was 14.10. The “cPLA2α XI(50)” value in test [1] is 0.0010 mole fraction and 0.0010 ± 0.0001 mole fraction. Further, the “times more potent than GK470” value in test [1] is reported as 7–11.
For the molecule `CCCCCCCOc1ccc(OC(C)C(=O)c2nc(C(=O)OC)cs2)cc1` (stereo not drawn) [GK439], the inhibition at 0.091 mole fraction worked out at 97% in test [1] (setting [3]); 96% in test [1] (setting [4]); 53% in test [2] (setting [5]); 53.3% in test [2] (setting [6]); 50.7% in test [2] (setting [7]). The “cPLA2α inhibition, Xi50 dose-response” value in test [1] (Log [inhibitor] (mole%) -3.00) is 33.0. Moreover, the “cPLA2α XI(50)” value in test [1] was 0.0029 mole fraction and 0.0029 ± 0.0004 mole fraction. The “cPLA2 % inhibition at 0.091 mole fraction, average” value in test [1] is recorded as 96.6%.
Consider `COC(=O)c1csc(C(=O)COc2ccc(Oc3ccc(F)cc3)cc2)n1` [GK440], for which the inhibition at 0.091 mole fraction came to 100% in test [1] (setting [3]); 99.5% in test [1] (setting [4]); 31% in test [2] (setting [5]); 30.8% in test [2] (setting [6]); 34.1% in test [2] (setting [7]). Moreover, the “cPLA2α inhibition, Xi50 dose-response” value in test [1] (Log [inhibitor] (mole%) -1.00) amounted to 102.2; in test [1] (Log [inhibitor] (mole%) -1.22), 99.7. The “cPLA2α XI(50)” value in test [1] was 0.0010 mole fraction and 0.0010 ± 0.0001 mole fraction. Further, in test [1], the “cPLA2 % inhibition at 0.091 mole fraction, average” value is 100.3%. In addition, the “sPLA2 % inhibition at 0.091 mole fraction” value in test [2] (individual technical replicate) worked out at 29.2%.
For `CCCCCCCOc1ccc(OCC(=O)c2nc(C(=O)OC)cs2)cc1` [GK420], the inhibition at 0.091 mole fraction worked out at 98% in test [1] (setting [3]); 97.2% in test [1] (setting [4]); 46% in test [2] (setting [5]); 46.4% in test [2] (setting [6]); 48.2% in test [2] (setting [7]). Besides, the “cPLA2α XI(50)” value in test [1] is 0.0016 mole fraction and 0.0016 ± 0.0002 mole fraction. For the same molecule, the “times more potent than GK470” value in test [1] is on record as 7–11.
